ChEMBL document CHEMBL1201862, “PubChem BioAssay data set” (2004)
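Five compound concentrations were applied to cells in 96-well plates for 48 hours; endpoints were derived by simple linear interpolation of the resulting dose-response curve. Abbreviation: GI50, concentration required for 50% inhibition of growth.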 Active and inactive are the calls of the source. Rule as the data show it: active = GI50 up to about 1.1 µM and inactive = higher.

Columns and labels:
Assay in all cases: NCI anticancer screen, dose series, 48 h
[1] = system: SF-268
[2] = system: HOP-18
[3] = system: NCI-H522
[4] = system: SNB-78
[5] = system: DLD-1
[6] = system: TK-10
[7] = system: SNB-75
[8] = system: SK-MEL-2
[9] = system: A549
[10] = system: U-251
[11] = system: COLO 205
[12] = system: M14
[13] = system: UACC-257
[14] = system: SR
[15] = system: IGROV-1
[16] = system: SF-539

Measured: GI50

O=C(c1ccccc1)C1CCCCN1C(=O)c1ccccc1 (stereo not given)
inactive: [1] > 100 µM | [2] > 100 µM | [3] > 100 µM | [4] > 100 µM | [5] > 100 µM | [6] > 100 µM | [7] > 100 µM | [8] > 100 µM | [9] > 100 µM | [10] > 100 µM | [11] > 100 µM | [12] > 100 µM | [13] > 100 µM | [14] > 100 µM | [15] > 100 µM | [16] > 100 µM

O=C(O)c1ccc(C2=Cc3cc(Cl)ccc3OC2)cc1
inactive: [1] > 100 µM | [2] 55.1 µM | [3] > 100 µM | [4] > 100 µM | [5] > 100 µM | [6] > 100 µM | [7] 22 µM | [8] > 100 µM | [9] > 100 µM | [10] > 100 µM | [11] > 100 µM | [12] > 100 µM | [13] > 100 µM | [14] > 100 µM | [15] > 100 µM | [16] > 100 µM

CC1=C(C(=O)Nc2ccccc2)C(c2cc(Cl)cc(Cl)c2)C(C(=O)Nc2ccccc2)=C(C)N1
inactive: [1] 9.79 µM | [2] 12.5 µM | [3] 5.36 µM | [4] 17.1 µM | [5] 4.14 µM | [6] 16.7 µM | [7] 10.8 µM | [8] 12.1 µM | [9] 20.8 µM | [10] 3.33 µM | [11] 17 µM | [12] 12.4 µM | [13] 12.3 µM | [14] 2.72 µM | [15] 16.1 µM | [16] 14.8 µM

CC(C)(C)OC(=O)N1N=NC2C3OC(CC3=O)C21 (stereo not given)
inactive: [1] > 100 µM | [2] > 100 µM | [3] > 100 µM | [4] > 100 µM | [5] > 100 µM | [6] > 100 µM | [7] > 100 µM | [8] > 100 µM | [9] > 100 µM | [10] > 100 µM | [11] > 100 µM | [12] > 100 µM | [13] > 100 µM | [14] 77.4 µM | [15] > 100 µM | [16] > 100 µM

COC(=O)C(C(=O)C(=O)Nc1cccc(C)c1)C1=NC(N)SS1 (stereo not given)
inactive: [1] > 100 µM | [2] > 100 µM | [3] > 100 µM | [4] > 100 µM | [5] > 100 µM | [6] > 100 µM | [7] > 100 µM | [8] > 100 µM | [9] > 100 µM | [10] > 100 µM | [11] > 100 µM | [12] > 100 µM | [13] > 100 µM | [14] > 100 µM | [15] > 100 µM | [16] > 100 µM
